Test results: ChEMBL document CHEMBL4028802, “DILIrank: the largest reference drug list ranked by the risk for developing drug-induced liver injury in humans” (Drug Discov Today, 2016)

How the values were obtained:
Homo sapiens [1] = species on record: Homo sapiens; experiment: Liver toxicity in human assessed as induction of drug-induced liver injury by measuring severity class index
Homo sapiens [2] = species on record: Homo sapiens; experiment: Liver toxicity in human assessed as induction of drug-induced liver injury by measuring verified drug-induced liver injury concern status
Wherever DILI severity class is given: key of the grades not given here.

| Compound | DILI_severity_class (Homo sapiens [1]) | DILI_Concern (Homo sapiens [2]) |
| --- | --- | --- |
| C[N+]1(C)CCCC(OC(=O)C(O)(c2ccccc2)c2ccccc2)C1 (configuration not stated) [MEPENZOLATE] | 0 | No-Dili-Concern |
| OC(CCN1CCCCC1)(c1ccccc1)C1CCCCC1 (configuration not stated) [TRIHEXYPHENIDYL] | 0 | No-Dili-Concern |
| CC(C)NCC(O)c1cc(O)cc(O)c1 (configuration not stated) [METAPROTERENOL] | 0 | No-Dili-Concern |
| CC[C@@]1(O)C(=O)OCc2c1cc1n(c2=O)Cc2cc3c(CN(C)C)c(O)ccc3nc2-1 [TOPOTECAN] | 0 | No-Dili-Concern |
| Cc1nnc2n1-c1ccc(Cl)cc1C(c1ccccc1)=NC2 [ALPRAZOLAM] | 7 | Less-Dili-Concern |
| C[C@]12CC[C@@H]3c4ccc(O)cc4CC[C@H]3[C@@H]1CCC2=O [ESTRONE] | 2 | Ambiguous-Dili-Concern |
| CC[C@H](C)[C@H](NC(=O)[C@H](CC(=O)O)NC(=O)[C@H](CC(C)C)NC(=O)[C@H](CC(C)C)NC(=O)[C@H](CCCCN)NC(=O)[C@H](CCCN=C(N)N)NC(=O)[C@H](CC(N)=O)NC(=O)[C@H](CO)NC(=O)[C@H](Cc1cnc[nH]1)NC(=O)[C@H](C)NC(=O)[C@H](CCC(N)=O)NC(=O)[C@H](CCC(N)=O)NC(=O)[C@H](C)NC(=O)[C@H](CC(C)C)NC(=O)[C@H](CCC(N)=O)NC(=O)[C@H](CC(=O)O)NC(=O)[C@H](C)NC(=O)[C@H](CCCCN)NC(=O)[C@@H](NC(=O)[C@H](CCSC)NC(=O)[C@H](CCC(=O)O)NC(=O)[C@H](CC(C)C)NC(=O)[C@@H](NC(=O)[C@H](CCC(=O)O)NC(=O)[C@H](CCCN=C(N)N)NC(=O)[C@H](CC(C)C)NC(=O)[C@H](CC(C)C)NC(=O)[C@H](Cc1cnc[nH]1)NC(=O)[C@H](Cc1ccccc1)NC(=O)[C@@H](NC(=O)[C@H](CC(C)C)NC(=O)[C@H](CC(=O)O)NC(=O)[C@H](CC(C)C)NC(=O)[C@H](CO)NC(=O)[C@@H](NC(=O)[C@@H]1CCCN1C(=O)[C@@H]1CCCN1C(=O)[C@H](CCC(=O)O)NC(=O)[C@H](CCC(N)=O)NC(=O)[C@@H](N)CO)[C@@H](C)CC)[C@@H](C)O)C(C)C)[C@@H](C)O)C(=O)N[C@@H](C)C(N)=O | 0 | No-Dili-Concern |
| NC1=NC(=O)C(c2ccccc2)O1 (configuration not stated) [PEMOLINE] | 8 | Most-Dili-Concern |
| Cc1ncc(C[n+]2csc(CCO)c2C)c(N)n1 [THIAMINE ION] | 0 | No-Dili-Concern |
| CN(C)CCC(c1ccc(Br)cc1)c1ccccn1 (configuration not stated) [BROMPHENIRAMINE] | 0 | No-Dili-Concern |
| Nc1nc2[nH]cc(CCc3ccc(C(=O)N[C@@H](CCC(=O)O)C(=O)O)cc3)c2c(=O)[nH]1 [PEMETREXED] | 3 | Ambiguous-Dili-Concern |
| CN[C@@H]1[C@H](O)[C@H](NC)[C@H]2O[C@@]3(O)C(=O)C[C@@H](C)O[C@H]3O[C@@H]2[C@H]1O [SPECTINOMYCIN] | 3 | Ambiguous-Dili-Concern |
| N=C(N)NC(=O)c1nc(Cl)c(N)nc1N [AMILORIDE] | 3 | Less-Dili-Concern |
| C#C[C@]1(O)CC[C@H]2[C@@H]3CCC4=CC(=O)CC[C@@H]4[C@H]3CC[C@@]21CC [LEVONORGESTREL] | 0 | No-Dili-Concern |
| CN(N=O)C(=O)N[C@@H](C=O)[C@@H](O)[C@H](O)[C@H](O)CO [STREPTOZOCIN] | 3 | Ambiguous-Dili-Concern |
| Cc1ncc2n1-c1ccc(Cl)cc1C(c1ccccc1F)=NC2 [MIDAZOLAM] | 0 | No-Dili-Concern |
| Cc1c(C)c2c(c(C)c1O)CCC(C)(COc1ccc(CC3SC(=O)NC3=O)cc1)O2 (configuration not stated) [TROGLITAZONE] | 8 | Most-Dili-Concern |
| CCOC(=O)[C@H](CCc1ccccc1)N[C@H]1CCc2ccccc2N(CC(=O)O)C1=O [BENAZEPRIL] | 4 | Less-Dili-Concern |
| CN(C)CCC(c1ccc(Cl)cc1)c1ccccn1 (configuration not stated) [CHLORPHENIRAMINE] | 0 | No-Dili-Concern |
| CN1C(=O)C(O)N=C(c2ccccc2)c2cc(Cl)ccc21 (configuration not stated) [TEMAZEPAM] | 3 | Ambiguous-Dili-Concern |
| CCN(CC)CCN1C(=O)CN=C(c2ccccc2F)c2cc(Cl)ccc21 [FLURAZEPAM] | 4 | Less-Dili-Concern |
| CCN(CC)CCNC(=O)c1cc(Cl)c(N)cc1OC [METOCLOPRAMIDE] | 5 | Less-Dili-Concern |
| COc1ccccc1OCC(O)CN1CCN(CC(=O)Nc2c(C)cccc2C)CC1 (configuration not stated) [RANOLAZINE] | 0 | No-Dili-Concern |
| O=C1CCCC(=O)C1C(=O)c1ccc(C(F)(F)F)cc1[N+](=O)[O-] [NITISINONE] | 7 | Ambiguous-Dili-Concern |
| O=C1Nc2ccc(Cl)cc2C(c2ccccc2Cl)=NC1O (configuration not stated) [LORAZEPAM] | 3 | Ambiguous-Dili-Concern |
| CN(C)[C@@H]1C(O)=C(C(N)=O)C(=O)[C@@]2(O)C(O)=C3C(=O)c4c(O)cccc4[C@@](C)(O)[C@H]3C[C@@H]12 [TETRACYCLINE] | 2 | Less-Dili-Concern |

| Compound | DILI_severity_class (Homo sapiens [1]) | DILI_Concern (Homo sapiens [2]) |
| --- | --- | --- |
| O=C(O)CN(CCN(CC(=O)O)CC(=O)O)CCN(CC(=O)O)CC(=O)O [PENTETIC ACID] | 0 | No-Dili-Concern |
| CO[C@@]1(NC(=O)C2SC(=C(C(N)=O)C(=O)O)S2)C(=O)N2C(C(=O)O)=C(CSc3nnnn3C)CS[C@@H]21 (some centres not stated) [CEFOTETAN] | 3 | Ambiguous-Dili-Concern |
| Cc1cccc(C)c1OCC(C)N (configuration not stated) [MEXILETINE] | 3 | Most-Dili-Concern |
| SEVELAMER | 0 | No-Dili-Concern |
| Nc1nc(/C(=C/CC(=O)O)C(=O)N[C@@H]2C(=O)N3C(C(=O)O)=CCS[C@H]23)cs1 [CEFTIBUTEN] | 3 | Ambiguous-Dili-Concern |
| CC[C@@H](CO)NCCN[C@@H](CC)CO [ETHAMBUTOL] | 8 | Most-Dili-Concern |
| N[C@@H](C(=O)N[C@@H]1C(=O)N2C(C(=O)O)=C(Cl)CC[C@H]12)c1ccccc1 [LORACARBEF ANHYDROUS] | 3 | Less-Dili-Concern |
| CC(=O)Oc1ccccc1C(=O)O [ASPIRIN] | 0 | Less-Dili-Concern |
| Cc1ccc(Nc2c(F)cccc2Cl)c(CC(=O)O)c1 [LUMIRACOXIB] | 8 | Most-Dili-Concern |
| O=c1[nH]c2ccccc2n1C1CCN(CCCC(c2ccc(F)cc2)c2ccc(F)cc2)CC1 [PIMOZIDE] | 0 | No-Dili-Concern |
| N[C@@H](CS)C(=O)O [CYSTEINE] | 3 | Ambiguous-Dili-Concern |
| Cc1cc(Br)c(O)c2ncccc12 [TILBROQUINOL] | 8 | Most-Dili-Concern |
| COc1ccc(OC)c(C(O)CNC(=O)CN)c1 (configuration not stated) [MIDODRINE] | 0 | No-Dili-Concern |
| Cc1cnc(C(=O)NCCc2ccc(S(=O)(=O)NC(=O)NC3CCCCC3)cc2)cn1 [GLIPIZIDE] | 3 | Less-Dili-Concern |
| CNC(=O)Oc1ccc2c(c1)[C@]1(C)CCN(C)[C@@H]1N2C [PHYSOSTIGMINE] | 0 | No-Dili-Concern |
| CN1[C@@H]2CC[C@H]1C[C@@H](OC(=O)C(CO)c1ccccc1)C2 (some centres not stated) [ATROPINE] | 0 | No-Dili-Concern |
| CN(C)CC[C@@H](c1ccc(Cl)cc1)c1ccccn1 [DEXCHLORPHENIRAMINE] | 0 | No-Dili-Concern |
| IVERMECTIN | 3 | Less-Dili-Concern |
| N[C@@H]1C[C@H]1c1ccccc1.N[C@H]1C[C@@H]1c1ccccc1 [TRANYLCYPROMINE] | 3 | Less-Dili-Concern |
| C=C1/C(=C\C=C2/CCC[C@]3(C)[C@@H]([C@H](C)CCCC(C)(C)O)CC[C@@H]23)C[C@@H](O)C[C@@H]1O [CALCITRIOL] | 0 | No-Dili-Concern |
| COc1ccc(CCN(C)CCCC(C#N)(c2ccc(OC)c(OC)c2)C(C)C)cc1OC (configuration not stated) |  | Less-Dili-Concern |
| Clc1ccccc1CN1CCc2sccc2C1 [TICLOPIDINE] |  | Most-Dili-Concern |
| O=C(O)c1cc(=O)c2cc(OCC(O)COc3cccc4oc(C(=O)O)cc(=O)c34)ccc2o1 (configuration not stated) | 3 |  |
| CN(C)CCCN1c2ccccc2CCc2ccccc21 [IMIPRAMINE] |  | Less-Dili-Concern |
| CC(=O)Nc1ccc(O)cc1 [ACETAMINOPHEN] |  | Most-Dili-Concern |
